Results on 31 compounds are retold here after patent US20240158370A1, “CK1 alpha AND DUAL CK1 alpha / GSPT1 DEGRADING COMPOUNDS” (Innovo Therapeutics, Inc., priority 2022, published 2024).

In one assay the target is T1, CK1α (Homo sapiens, UniProt P48729+Q96SW2).
T1 construct: CSNK1A1-HiBit KI HEK293(LgBit) Cells; host or cells: HEK293(LgBit) knock-in cells
The assay is described as follows: HiBiT degradation assay, CK1α, Procedure A. The format is cell-based. The note with it: six hours incubation. The essentials:
(§1)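 Six-hour treatment at 37° C, ten doses between 10 μM and 0.005 μM, then HiBiT lytic luminescence. Fitted DC50 and Ymin.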
In general terms: The HiBiT peptide binds its large partner to form an active luciferase.

Another assay addresses GSPT1 (Homo sapiens, UniProt P15170+Q96SW2). Description: HiBiT degradation assay, GSPT1, Procedure A. It is filed as cell-based. The arrangement: HiBit-GSPT1 KI HEK293(LgBit) Cells; host or cells: HEK293(LgBit) knock-in cells. The note with it: six hours incubation. The method, boiled down:
as §1

Chain of GSPT1 (P15170 whole entry): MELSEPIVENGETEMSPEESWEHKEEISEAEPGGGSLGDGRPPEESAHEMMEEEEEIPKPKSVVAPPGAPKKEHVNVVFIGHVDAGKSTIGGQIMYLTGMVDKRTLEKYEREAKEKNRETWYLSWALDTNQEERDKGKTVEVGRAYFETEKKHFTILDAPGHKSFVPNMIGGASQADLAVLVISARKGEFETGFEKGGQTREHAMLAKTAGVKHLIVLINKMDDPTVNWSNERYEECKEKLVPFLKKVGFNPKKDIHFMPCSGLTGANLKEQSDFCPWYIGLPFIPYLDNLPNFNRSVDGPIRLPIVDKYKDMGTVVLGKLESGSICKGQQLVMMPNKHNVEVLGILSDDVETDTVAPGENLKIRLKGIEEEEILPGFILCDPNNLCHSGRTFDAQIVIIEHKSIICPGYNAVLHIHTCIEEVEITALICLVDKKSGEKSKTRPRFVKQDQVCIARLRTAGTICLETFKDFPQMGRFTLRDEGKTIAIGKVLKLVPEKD
Chain of GSPT1 (Q96SW2 whole entry): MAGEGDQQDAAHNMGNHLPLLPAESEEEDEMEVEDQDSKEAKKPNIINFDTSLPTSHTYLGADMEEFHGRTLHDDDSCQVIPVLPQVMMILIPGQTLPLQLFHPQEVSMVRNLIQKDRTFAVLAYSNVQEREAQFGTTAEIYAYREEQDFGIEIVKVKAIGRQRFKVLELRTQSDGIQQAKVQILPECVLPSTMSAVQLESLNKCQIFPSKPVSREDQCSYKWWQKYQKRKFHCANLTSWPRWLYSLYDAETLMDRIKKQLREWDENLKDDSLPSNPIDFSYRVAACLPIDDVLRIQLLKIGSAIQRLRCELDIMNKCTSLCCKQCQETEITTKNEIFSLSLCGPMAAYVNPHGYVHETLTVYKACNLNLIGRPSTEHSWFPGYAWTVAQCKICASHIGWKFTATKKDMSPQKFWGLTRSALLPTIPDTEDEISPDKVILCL
Chain of GSPT1 (Q16531 whole entry partner): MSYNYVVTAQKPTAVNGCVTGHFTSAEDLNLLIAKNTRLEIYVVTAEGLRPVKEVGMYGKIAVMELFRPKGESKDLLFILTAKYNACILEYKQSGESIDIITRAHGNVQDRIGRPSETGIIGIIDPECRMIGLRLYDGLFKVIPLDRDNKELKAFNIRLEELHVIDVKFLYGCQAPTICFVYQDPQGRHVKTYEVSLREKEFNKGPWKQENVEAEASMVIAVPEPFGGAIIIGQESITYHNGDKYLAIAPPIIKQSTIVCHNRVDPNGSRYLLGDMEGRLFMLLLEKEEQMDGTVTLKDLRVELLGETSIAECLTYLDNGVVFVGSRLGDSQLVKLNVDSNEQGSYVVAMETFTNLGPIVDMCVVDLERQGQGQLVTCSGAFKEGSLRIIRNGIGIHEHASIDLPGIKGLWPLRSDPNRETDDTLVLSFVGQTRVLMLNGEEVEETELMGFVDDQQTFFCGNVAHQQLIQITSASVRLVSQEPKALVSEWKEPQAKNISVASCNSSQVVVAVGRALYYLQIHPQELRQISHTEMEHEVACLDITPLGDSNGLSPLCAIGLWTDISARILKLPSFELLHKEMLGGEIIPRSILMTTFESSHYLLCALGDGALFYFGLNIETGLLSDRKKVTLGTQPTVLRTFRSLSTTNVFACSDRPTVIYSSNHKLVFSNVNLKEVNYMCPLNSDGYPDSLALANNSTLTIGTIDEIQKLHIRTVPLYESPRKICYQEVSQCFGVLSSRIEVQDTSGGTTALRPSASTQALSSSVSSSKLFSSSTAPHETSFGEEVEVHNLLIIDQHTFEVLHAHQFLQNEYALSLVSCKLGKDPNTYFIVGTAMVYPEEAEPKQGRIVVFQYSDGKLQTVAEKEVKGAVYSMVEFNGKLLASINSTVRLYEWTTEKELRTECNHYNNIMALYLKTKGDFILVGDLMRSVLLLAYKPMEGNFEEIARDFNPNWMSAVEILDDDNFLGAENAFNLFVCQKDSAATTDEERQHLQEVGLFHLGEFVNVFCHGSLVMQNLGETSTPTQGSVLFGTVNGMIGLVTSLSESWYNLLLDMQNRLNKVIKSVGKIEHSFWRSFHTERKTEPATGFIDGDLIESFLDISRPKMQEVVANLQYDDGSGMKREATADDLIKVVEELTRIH
T1 sequence (P48729 whole entry): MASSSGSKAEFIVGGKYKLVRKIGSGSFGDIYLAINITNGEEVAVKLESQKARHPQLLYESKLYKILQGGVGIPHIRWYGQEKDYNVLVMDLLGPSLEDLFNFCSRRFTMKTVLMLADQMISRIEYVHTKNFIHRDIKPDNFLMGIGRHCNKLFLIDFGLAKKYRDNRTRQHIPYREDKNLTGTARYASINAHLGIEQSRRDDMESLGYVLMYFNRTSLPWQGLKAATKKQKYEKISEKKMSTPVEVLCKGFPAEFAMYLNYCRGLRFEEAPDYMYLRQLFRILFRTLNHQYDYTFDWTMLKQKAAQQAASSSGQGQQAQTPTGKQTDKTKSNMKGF
T1 sequence (Q96SW2 whole entry): as the sequence (Q96SW2 whole entry) above
T1 sequence (Q16531 whole entry partner): as the sequence (Q16531 whole entry partner) above

With `COc1cc(-c2c(-c3ccc4c(c3)CN(C3CCC(=O)NC3=O)C4=O)ncn2C)ccc1C` (stereo not shown) [Example 251], on CK1α, the “CK1α Ymin” value is on record as “D (D = >10- 25% remaining)” and the DC50 (commonly the concentration at which degradation of the target reaches its halfway point) was less than 25 nM. Further, on GSPT1, the DC50 is no less than 25 nM and the “GSPT1 Ymin” value is reported as “F (F = >75-100% remaining)”.
Regarding `Cc1ccc(-c2c(-c3ccc4c(c3)CN(C3CCC(=O)NC3=O)C4=O)ncn2C)cc1CO` (stereo not shown) [Example 252], at CK1α, the “CK1α Ymin” value is reported as “D (D = >10- 25% remaining)” and the DC50 was less than 25 nM. Further, on GSPT1, the DC50 was no less than 25 nM and the “GSPT1 Ymin” value is “E (E = >25-75% remaining)”.
Consider `COc1ccc(-c2c(-c3ccc4c(c3)CN(C3CCC(=O)NC3=O)C4=O)ncn2C)cc1O` (stereo not shown) [Example 253], for which, at CK1α, the “CK1α Ymin” value was “C (C = 0-10% remaining)” and the DC50 is less than 25 nM. On GSPT1, the DC50 was less than 25 nM and the “GSPT1 Ymin” value is “D (D = >10- 25% remaining)”.
With `Cc1cc(Cl)ccc1-c1c(-c2ccc3c(c2)CN(C2CCC(=O)NC2=O)C3=O)ncn1C` (stereo not shown) [Example 254], on CK1α, the “CK1α Ymin” value is “E (E = >25-75% remaining)” and the half-maximal degradation concentration (DC50) is less than 25 nM. Moreover, on GSPT1, the DC50 was less than 25 nM and the “GSPT1 Ymin” value was “E (E = >25-75% remaining)”.
Take `Cn1cnc(-c2ccc3c(c2)CN(C2CCC(=O)NC2=O)C3=O)c1-c1cccc2ccccc12` (stereo not shown) [Example 255]: on CK1α, the “CK1α Ymin” value is “E (E = >25-75% remaining)” and the DC50 is less than 25 nM. At GSPT1, the DC50 was less than 25 nM and the “GSPT1 Ymin” value is given as “F (F = >75-100% remaining)”.
For the compound `Cn1cnc(-c2ccc3c(c2)CN(C2CCC(=O)NC2=O)C3=O)c1-c1ccc2ccccc2c1` (stereo not shown) [Example 256], on CK1α, the “CK1α Ymin” value is “C (C = 0-10% remaining)” and the DC50 is less than 25 nM. Further, on GSPT1, the DC50 is less than 25 nM and the “GSPT1 Ymin” value is “E (E = >25-75% remaining)”.
For `Cn1cnc(-c2ccc3c(c2)CN(C2CCC(=O)NC2=O)C3=O)c1-c1ccc(F)c(Cl)c1` (stereo not shown) [Example 257], at CK1α, the “CK1α Ymin” value is recorded as “D (D = >10- 25% remaining)” and the DC50 is less than 25 nM. Further, on GSPT1, the DC50 was no less than 25 nM and the “GSPT1 Ymin” value is listed as “F (F = >75-100% remaining)”.
In the same order, the values of `Cn1cnc(-c2ccc3c(c2)CN(C2CCC(=O)NC2=O)C3=O)c1-c1ccc(Cl)cc1F` (stereo not shown) [Example 258] are “D (D = >10- 25% remaining)”, less than 25 nM, no less than 25 nM and “E (E = >25-75% remaining)”.
For the compound `Cn1cnc(-c2ccc3c(c2)CN(C2CCC(=O)NC2=O)C3=O)c1-c1ccc(F)cc1Cl` (stereo not shown) [Example 259], at CK1α, the “CK1α Ymin” value was “D (D = >10- 25% remaining)” and the DC50 is less than 25 nM. Further, on GSPT1, the 50% degradation concentration (DC50) is less than 25 nM and the “GSPT1 Ymin” value is listed as “E (E = >25-75% remaining)”.
For `Cn1cnc(-c2ccc3c(c2)CN(C2CCC(=O)NC2=O)C3=O)c1-c1ccc(Cl)c(F)c1` (stereo not shown) [Example 260], on CK1α, the “CK1α Ymin” value is “D (D = >10- 25% remaining)” and the DC50 is less than 25 nM. Moreover, on GSPT1, the DC50 is less than 25 nM and the “GSPT1 Ymin” value is “F (F = >75-100% remaining)”.
With `Cn1cnc(-c2ccc3c(c2)CN(C2CCC(=O)NC2=O)C3=O)c1-c1cc(Cl)ccc1F` (stereo not shown) [Example 261], at CK1α, the “CK1α Ymin” value is given as “E (E = >25-75% remaining)” and the 50% degradation concentration (DC50) was less than 25 nM. Besides, on GSPT1, the DC50 was no less than 25 nM and the “GSPT1 Ymin” value is recorded as “F (F = >75-100% remaining)”.
For `Cn1cnc(-c2ccc3c(c2)CN(C2CCC(=O)NC2=O)C3=O)c1-c1cccc(F)c1Cl` (stereo not shown) [Example 262], at CK1α, the “CK1α Ymin” value is reported as “D (D = >10- 25% remaining)” and the DC50 was less than 25 nM. Besides, on GSPT1, the DC50 was no less than 25 nM and the “GSPT1 Ymin” value is reported as “F (F = >75-100% remaining)”.
In the same order, the values of `COc1cc(C#N)ccc1-c1c(-c2ccc3c(c2)CN(C2CCC(=O)NC2=O)C3=O)ncn1C` (stereo not shown) [Example 263] are “E (E = >25-75% remaining)”, no less than 25 nM, less than 25 nM and “F (F = >75-100% remaining)”.
In the same order, the values of `CN1Cc2cccc(-c3c(-c4ccc5c(c4)CN(C4CCC(=O)NC4=O)C5=O)ncn3C)c2C1` (stereo not shown) [Example 264] are “E (E = >25-75% remaining)”, no less than 25 nM, less than 25 nM and “E (E = >25-75% remaining)”.
On the same counts, the results for `CC(C)Cc1ccc(-c2c(-c3ccc4c(c3)CN(C3CCC(=O)NC3=O)C4=O)ncn2C)cc1` (stereo not shown) [Example 265] are “D (D = >10- 25% remaining)”, less than 25 nM, no less than 25 nM and “F (F = >75-100% remaining)”.
For the compound `Cn1cnc(-c2ccc3c(c2)CN(C2CCC(=O)NC2=O)C3=O)c1-c1cccc(C(C)(C)C)c1` (stereo not shown) [Example 266], on CK1α, the “CK1α Ymin” value is “E (E = >25-75% remaining)” and the DC50 was no less than 25 nM. Moreover, at GSPT1, the DC50 was less than 25 nM and the “GSPT1 Ymin” value is reported as “F (F = >75-100% remaining)”.
In the same order, the values of `CNC(=O)c1ccc(-c2c(-c3ccc4c(c3)CN(C3CCC(=O)NC3=O)C4=O)ncn2C)cc1` (stereo not shown) [Example 267] are “C (C = 0-10% remaining)”, no less than 25 nM, no less than 25 nM and “F (F = >75-100% remaining)”.
On to `CNC(=O)c1cccc(-c2c(-c3ccc4c(c3)CN(C3CCC(=O)NC3=O)C4=O)ncn2C)c1` (stereo not shown) [Example 268], for which, at CK1α, the “CK1α Ymin” value is on record as “D (D = >10- 25% remaining)” and the DC50 was no less than 25 nM. In addition, at GSPT1, the DC50 was no less than 25 nM and the “GSPT1 Ymin” value is on record as “F (F = >75-100% remaining)”.
Regarding `Cn1cnc(-c2ccc3c(c2)CN(C2CCC(=O)NC2=O)C3=O)c1-c1ccc(Cl)c(C#N)c1` (stereo not shown) [Example 270], at CK1α, the “CK1α Ymin” value is listed as “D (D = >10- 25% remaining)” and the DC50 was less than 25 nM. At GSPT1, the DC50 is no less than 25 nM and the “GSPT1 Ymin” value is on record as “F (F = >75-100% remaining)”.
In the same order, the values of `Cn1cnc(-c2ccc3c(c2)CN(C2CCC(=O)NC2=O)C3=O)c1-c1cc(Cl)cc(C#N)c1` (stereo not shown) [Example 271] are “E (E = >25-75% remaining)”, no less than 25 nM, less than 25 nM and “F (F = >75-100% remaining)”.
In the same order, the values of `Cn1cnc(-c2ccc3c(c2)CN(C2CCC(=O)NC2=O)C3=O)c1-c1cc(Cl)ccc1C#N` (stereo not shown) [Example 272] are “E (E = >25-75% remaining)”, less than 25 nM, less than 25 nM and “F (F = >75-100% remaining)”.
In the same order, the values of `COc1ccc(-c2c(-c3ccc4c(c3)CN(C3CCC(=O)NC3=O)C4=O)ncn2C)c(Cl)c1` (stereo not shown) [Example 273] are “C (C = 0-10% remaining)”, less than 25 nM, less than 25 nM and “E (E = >25-75% remaining)”.
In the case of `COc1ccc(Cl)cc1-c1c(-c2ccc3c(c2)CN(C2CCC(=O)NC2=O)C3=O)ncn1C` (stereo not shown) [Example 274], on CK1α, the “CK1α Ymin” value is listed as “E (E = >25-75% remaining)” and the half-maximal degradation concentration (DC50) was less than 25 nM. On GSPT1, the DC50 was no less than 25 nM and the “GSPT1 Ymin” value is reported as “F (F = >75-100% remaining)”.
In the same order, the values of `COc1ccc(Cl)c(-c2c(-c3ccc4c(c3)CN(C3CCC(=O)NC3=O)C4=O)ncn2C)c1` (stereo not shown) [Example 275] are “D (D = >10- 25% remaining)”, less than 25 nM, no less than 25 nM and “F (F = >75-100% remaining)”.
On the same counts, the results for `COc1ccc(-c2c(-c3ccc4c(c3)CN(C3CCC(=O)NC3=O)C4=O)ncn2C)cc1Cl` (stereo not shown) [Example 276] are “C (C = 0-10% remaining)”, less than 25 nM, less than 25 nM and “F (F = >75-100% remaining)”.
On the same counts, the results for `COc1cccc(-c2c(-c3ccc4c(c3)CN(C3CCC(=O)NC3=O)C4=O)ncn2C)c1Cl` (stereo not shown) [Example 277] are “E (E = >25-75% remaining)”, less than 25 nM, less than 25 nM and “F (F = >75-100% remaining)”.
Regarding `COc1c(Cl)cccc1-c1c(-c2ccc3c(c2)CN(C2CCC(=O)NC2=O)C3=O)ncn1C` (stereo not shown) [Example 278], at CK1α, the “CK1α Ymin” value is “E (E = >25-75% remaining)” and the DC50 was less than 25 nM. In addition, at GSPT1, the half-maximal degradation concentration (DC50) is no less than 25 nM and the “GSPT1 Ymin” value is “F (F = >75-100% remaining)”.
In the same order, the values of `Cn1cnc(-c2ccc3c(c2)CN(C2CCC(=O)NC2=O)C3=O)c1-c1ccc(C2(C#N)CC2)cc1` (stereo not shown) [Example 279] are “D (D = >10- 25% remaining)”, less than 25 nM, no less than 25 nM and “F (F = >75-100% remaining)”.
On the same counts, the results for `Cn1cnc(-c2ccc3c(c2)CN(C2CCC(=O)NC2=O)C3=O)c1-c1cccc(C(F)(F)F)c1` (stereo not shown) [Example 280] are “E (E = >25-75% remaining)”, less than 25 nM, no less than 25 nM and “F (F = >75-100% remaining)”.
In the same order, the values of `Cn1cnc(-c2ccc3c(c2)CN(C2CCC(=O)NC2=O)C3=O)c1-c1ccccc1C(F)(F)F` (stereo not shown) [Example 282] are “E (E = >25-75% remaining)”, less than 25 nM, no less than 25 nM and “F (F = >75-100% remaining)”.
As for `Cn1cnc(-c2ccc3c(c2)CN(C2CCC(=O)NC2=O)C3=O)c1-c1ccc(Cl)c(Cl)c1` (stereo not shown) [Example 283], at CK1α, the “CK1α Ymin” value is “E (E = >25-75% remaining)” and the DC50 is less than 25 nM. Besides, on GSPT1, the half-maximal degradation concentration (DC50) is no less than 25 nM and the “GSPT1 Ymin” value was “F (F = >75-100% remaining)”.
